Columns and labels:
autophagy = details: cited from earlier work
A375P melanoma cells = assay: 72 hour alamar blue viability assay; type: cell-based; details: spermine or spermidine linker compared with Lys01
Experimental: […]. A375 P cells seeded in a 384 well format were treated with a 10 point dilution of concentrations (0.01 nM-10 uM) (B) Colony formation assay in soft agar. Cells from the indicated melanoma (A375, WM983B, SKMEL5) and pancreatic cancer (PANC1, CAPAN1) cell lines were plated in soft agar. Medium with compound was changed every 48 hours. Crystal violet staining was used to visualize formed colonies after 2 weeks.
A375P melanoma cells were plated in a 384 well format and treated with increasing concentrations of […] derivatives. After 72 hours the cells were analyzed by alamar blue. Complete data is in Table 1, FIG. 10. (A) IC50 according to symmetry of linker (B) IC50 by linker length.
[…]. After 72 hours incubation at 37 degrees, Alamar blue was applied and viability was determined using absorbance. Absorbance was normalized to DMSO control, and a log IC50 was estimated using Graphpad Prism software.
. After 72 hours incubation at 37 degrees, Alamar blue was applied and viability was determined using absorbance. Absorbance was normalized to DMSO control, and a log IC50 was estimated using Graphpad Prism software (FIG. 11, Table 1). LN229 cells produced similar data (data not shown). The increased cytotoxicity of longer linker and asymmetric compounds was confirmed in a 2 week colony formation assay using 5 different cell lines (FIG. 1B). Analysis of the cytotoxicity findings alone elucidated some key features of potential structure activity relationships. First, substitution of the central nitrogen substitution beyond methyl reduces activity. Second, there was no clear advantage of assymetric versus symmetric linkers (FIG. 2A) with regards to cytotoxicity alone. […]

A375 cells [1] = assay: Apoptosis by annexin V detection; details: for apoptosis (annexin V): 1 uM compound, 24 hour timepoint
Experimental: (C) Apoptosis reflected by annexin V detection in A375 cells treated with 1 uM compound at the 24 hours. (D) Apoptosis reflected by annexin V detection in A375 cells treated with indicated compounds at 3 uM for 24 or 48 hours.

[2] = test system: A375P mCherry-eGFP-LC3 cells; assay: Flow cytometry green/red ratio, inhibition of autophagic flux; type: cell-based; details: for inhibition of autophagic flux (green/red ratio): 1 uM compound, 24 hours
Description: PLX: PLX4720; TRA: trametinib.

A375 cells [3] = assay: Flow cytometry quantification of reactive oxygen species (DHR_123 fluorescence); details: 1 uM compound, 24 hours
[4] = test system: A375P mCherry eGFP-LC3 cells grown into 3 dimensional spheroids; assay: 3D spheroid growth and invasion in collagen; type: cell-based; details: 3 uM, 72 hours
Experimental: A375P mCherry eGFP-LC3 cells grown into 3 dimensional spheroids and implanted in collagen. After 72 hours of treatment with 3 uM of indicated compound, cells were counterstained with DAPI. (A) fluorescence microscopy was used to visualize autophagy inhibition (bright areas), inhibition of invasion into the collagen and (B) quantification of the DAPI fluorescence indicative of cell death. *p<0.05
The 3D spheroid model has been used extensively to mimic the tumor microenvironment (Ma et al Clin Can Research 2011). Autophagy levels are more reflective of in vivo autophagy dynamics in the 3D models compared to traditional two dimensional cell culture. In this format cancer cells are grown as spheroids and then implanted in a collagen matrix. The spheroids then begin to invade and grow within this tissue microenvironment.

melanoma cell lines = assay: LC3B and actin immunoblotting (LC3II/actin quantification); details: 1 uM, 24 hours, 3 melanoma cell lines, compared with Lys05
Experimental: Each compound was administered at 1 uM concentrations for 24 hours.
As an initial method of determining the effects of the longer linker compounds on autophagic vesicle accumulation, a series of most cytotoxic dimeric CQ's were used to treat 3 different cell lines (1 uM, 24 hours). Cell lysates were collected and immunoblotting against LC3 and actin as performed (FIG. 4).

SMILES | potency on replacement of the Lys01 linker with longer linkers (A375P melanoma cells) | apoptosis (annexin V) (A375 cells [1]) | inhibition of autophagic flux (green/red ratio) [2] | ROS (DHR_123 fluorescence) (A375 cells [3]) | also measured
CCN(CCO)CCCC(C)Nc1ccnc2cc(Cl)ccc12 (centres unmarked) [HCQ, hydroxychloroquine] |  |  |  |  | concentrations required to inhibit autophagy (autophagy): High micromolar concentrations
Clc1ccc2c(NCCCCNCCCNc3ccnc4cc(Cl)ccc34)ccnc2c1 [Lys21] | significant increases in potency | most apoptosis | most effective at inhibiting autophagic flux |  | ability to induce apoptosis compared to comparable symmetric compounds (A375 cells [1]): superior; autophagy inhibition compared to comparable symmetric compounds [2]: superior autophagy inhibition
CN(CCCCNc1ccnc2cc(Cl)ccc12)CCCNc1ccnc2cc(Cl)ccc12 [Lys26] | significant increases in potency |  |  | highest levels of ROS | 
CN(CCCCCCNc1ccnc2cc(Cl)ccc12)CCCCCCNc1ccnc2cc(Cl)ccc12.Cl [Lys75] |  | most apoptosis | most effective at inhibiting autophagic flux | highest levels of ROS | inhibition of growth and invasion of 3D spheroids [4]: most potent compound at inhibiting growth and invasion; LC3II/actin (melanoma cell lines): most consistent and substantial increase
CN(CCCCN(C)CCCNc1ccnc2cc(Cl)ccc12)CCCNc1ccnc2cc(Cl)ccc12 [Lys 25] | significant increases in potency |  |  |  | 

— patent US11001558B2, “Asymmetric bisaminoquinolines and bisaminoquinolines with varied linkers as autophagy inhibitors for cancer and other therapy” (THE TRUSTEES OF THE UNIVERSITY OF PENNSYLVANIA, priority 2014, dated 2021)
